# Laboratory results reported in patent US20240217966A1, “PHARMACEUTICAL COMPOSITION CONTAINING GLP-1 RECEPTOR AGONIST HAVING FUSED RING” (Shionogi & Co., Ltd., priority 2021, published 2024).
# Biological target: T1, Human GLP-1 receptor (Homo sapiens, UniProt P43220)
# T1 construct: expressed in transfected cells
# Assay: Measurement of GLP-1 receptor agonist activity (cAMP assay)
# Type: cell-based
# Conditions: for Emax: CHO-K1, hGLP-1R/CHO-K1 cells, cAMP, 100% = human GLP-1 (7-36) at 2 nM, 0% = DMSO only, read-out: Emax(%); for EC50: hGLP-1R/CHO-K1 cells, cAMP increase, 37° C. 1 hour
# Outline: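 hGLP-1R/CHO-K1 cells in HBSS with 0.1% BSA, 20 mM HEPES, 0.1 mM IBMX and 0.2 mM RO20-1724 exposed to compound plus forskolin (400 μM stock) for 1 h at 37 °C. Intracellular cAMP read by HTRF (cAMP-d2/anti-cAMP cryptate, 1 h at room temperature).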
# T1 sequence (P43220 24-463): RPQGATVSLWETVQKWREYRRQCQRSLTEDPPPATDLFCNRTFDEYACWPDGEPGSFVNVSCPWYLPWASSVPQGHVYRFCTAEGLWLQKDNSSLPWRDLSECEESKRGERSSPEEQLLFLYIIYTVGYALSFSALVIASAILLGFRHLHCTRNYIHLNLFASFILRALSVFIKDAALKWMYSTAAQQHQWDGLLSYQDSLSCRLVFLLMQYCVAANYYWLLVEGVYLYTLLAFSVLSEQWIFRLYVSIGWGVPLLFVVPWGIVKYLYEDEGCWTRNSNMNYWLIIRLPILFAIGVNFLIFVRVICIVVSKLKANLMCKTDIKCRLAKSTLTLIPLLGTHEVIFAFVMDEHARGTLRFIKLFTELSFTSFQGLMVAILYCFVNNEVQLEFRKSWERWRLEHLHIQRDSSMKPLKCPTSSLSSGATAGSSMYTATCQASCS
Emax [%],EC50 [nM],Structure (SMILES)
102,0.707,C[C@H]1c2cc(OCc3ccc(Cl)cc3Cl)c(C(F)(F)F)cc2CCN1Cc1nc2ccc(C(=O)O)cc2n1C[C@@H]1CCO1 [Compound I-167]
104,2.24,C[C@H]1c2cc(OCc3ccc(OC(F)F)cc3F)c(C(F)(F)F)cc2CCN1Cc1nc2ccc(C(=O)O)cc2n1C[C@@H]1CCO1 [Compound I-168]
101,1.21,C[C@H]1c2cc(OCc3cc(F)c(Cl)cc3F)c(C(F)(F)F)cc2CCN1Cc1nc2ccc(C(=O)O)cc2n1C[C@@H]1CCO1 [Compound I-169]
120,1.24,C[C@H]1c2cc(OCc3ccc(C#N)cc3F)c(C(F)(F)F)cc2CCN1Cc1nc2ccc(C(=O)O)cc2n1C[C@@H]1CCO1 [Compound I-170]
98.7,2.37,COc1ccc(COc2cc3c(cc2C(F)(F)F)CCN(Cc2nc4ccc(C(=O)O)cc4n2C[C@@H]2CCO2)[C@H]3C)cc1 [Compound I-171]
113,0.946,C[C@H]1c2cc(OCc3ccc(Cl)cn3)c(C(F)(F)F)cc2CCN1Cc1nc2ccc(C(=O)O)cc2n1C[C@@H]1CCO1 [Compound I-172]
102,2.3,Cc1csc(COc2cc3c(cc2C(F)(F)F)CCN(Cc2nc4ccc(C(=O)O)cc4n2C[C@@H]2CCO2)[C@H]3C)n1 [Compound I-173]
109,1.58,C[C@H]1c2cc(OCc3ccc(Cl)cc3F)c(Cl)cc2CCN1Cc1nc2ccc(C(=O)O)cc2n1C[C@@H]1CCO1 [Compound I-174]
101,3.58,COc1ccc(COc2cc3c(cc2C(F)(F)F)CCN(Cc2nc4ccc(C(=O)O)nc4n2C[C@@H]2CCO2)[C@H]3C)cc1 [Compound I-175]
98.3,2.12,C[C@H]1c2cc(OCc3ccc(Cl)cn3)c(C(F)(F)F)cc2CCN1Cc1nc2ccc(C(=O)O)nc2n1C[C@@H]1CCO1 [Compound I-176]
107,3.09,Cc1csc(COc2cc3c(cc2C(F)(F)F)CCN(Cc2nc4ccc(C(=O)O)nc4n2C[C@@H]2CCO2)[C@H]3C)n1 [Compound I-177]
111,1.97,C[C@H]1c2cc(OCc3ccc(Cl)cc3)c(C(F)(F)F)cc2CCN1Cc1nc2ccc(C(=O)O)nc2n1C[C@@H]1CCO1 [Compound I-178]
99,1.88,Cc1ccc(COc2cc3c(cc2C(F)(F)F)CCN(Cc2nc4ccc(C(=O)O)nc4n2C[C@@H]2CCO2)[C@H]3C)cc1 [Compound I-179]
97.3,8.94,C[C@H]1c2cc(OCc3ccc(C4CC4)cc3)c(C(F)(F)F)cc2CCN1Cc1nc2ccc(C(=O)O)nc2n1C[C@@H]1CCO1 [Compound I-180]
116,0.374,COc1cc(Cl)ccc1COc1cc2c(cc1C(F)(F)F)CCN(Cc1nc3ccc(C(=O)O)nc3n1C[C@@H]1CCO1)[C@H]2C [Compound I-181]
126,3.31,C[C@H]1c2cc(OCc3ccccc3Cl)c(C(F)(F)F)cc2CCN1Cc1nc2ccc(C(=O)O)nc2n1C[C@@H]1CCO1 [Compound I-182]
98,2.54,C[C@H]1c2cc(OCc3ccc(F)cc3F)c(C(F)(F)F)cc2CCN1Cc1nc2ccc(C(=O)O)nc2n1C[C@@H]1CCO1 [Compound I-183]
98,4.75,C[C@H]1c2cc(OCc3ccc(OC(F)F)cc3F)c(C(F)(F)F)cc2CCN1Cc1nc2ccc(C(=O)O)nc2n1C[C@@H]1CCO1 [Compound I-184]
106,2.2,C[C@H]1c2cc(OCc3cc(F)c(Cl)cc3F)c(C(F)(F)F)cc2CCN1Cc1nc2ccc(C(=O)O)nc2n1C[C@@H]1CCO1 [Compound I-185]
111,3.28,C[C@H]1c2cc(OCc3ccc(C#N)cc3F)c(C(F)(F)F)cc2CCN1Cc1nc2ccc(C(=O)O)nc2n1C[C@@H]1CCO1 [Compound I-186]
105,4.2,C[C@H]1c2cc(OCc3ccc(F)cc3)c(C(F)(F)F)cc2CCN1Cc1nc2ccc(C(=O)O)nc2n1C[C@@H]1CCO1 [Compound I-187]
90.3,1.79,C[C@H]1c2cc(OCc3c(F)cc(F)cc3F)c(C(F)(F)F)cc2CCN1Cc1nc2ccc(C(=O)O)nc2n1C[C@@H]1CCO1 [Compound I-188]
122,0.0651,COc1cc(C(=O)O)cc2c1nc(CN1CCc3cc(C(F)(F)F)c(OCc4ccc(Cl)cc4F)cc3[C@@H]1C)n2C[C@@H]1CCO1 [Compound I-189]
109,1.08,COc1ccc(COc2cc3c(cc2C(F)(F)F)CCN(Cc2nc4ccc(C(=O)O)c(F)c4n2C[C@@H]2CCO2)[C@H]3C)cc1 [Compound I-190]
130,0.644,C[C@H]1c2cc(OCc3ccc(Cl)cn3)c(C(F)(F)F)cc2CCN1Cc1nc2ccc(C(=O)O)c(F)c2n1C[C@@H]1CCO1 [Compound I-191]

Emax [%],EC50 [nM],Structure (SMILES)
123,1.2,Cc1csc(COc2cc3c(cc2C(F)(F)F)CCN(Cc2nc4ccc(C(=O)O)c(F)c4n2C[C@@H]2CCO2)[C@H]3C)n1 [Compound I-192]
115,0.73,C[C@H]1c2cc(OCc3ccc(Cl)cc3)c(C(F)(F)F)cc2CCN1Cc1nc2ccc(C(=O)O)c(F)c2n1C[C@@H]1CCO1 [Compound I-193]
111,0.741,Cc1ccc(COc2cc3c(cc2C(F)(F)F)CCN(Cc2nc4ccc(C(=O)O)c(F)c4n2C[C@@H]2CCO2)[C@H]3C)cc1 [Compound I-194]
96.3,3.29,C[C@H]1c2cc(OCc3ccc(C4CC4)cc3)c(C(F)(F)F)cc2CCN1Cc1nc2ccc(C(=O)O)c(F)c2n1C[C@@H]1CCO1 [Compound I-195]
106,0.136,COc1cc(Cl)ccc1COc1cc2c(cc1C(F)(F)F)CCN(Cc1nc3ccc(C(=O)O)c(F)c3n1C[C@@H]1CCO1)[C@H]2C [Compound I-196]
119,1.33,C[C@H]1c2cc(OCc3ccccc3Cl)c(C(F)(F)F)cc2CCN1Cc1nc2ccc(C(=O)O)c(F)c2n1C[C@@H]1CCO1 [Compound I-197]
128,1.17,C[C@H]1c2cc(OCc3ccc(F)cc3F)c(C(F)(F)F)cc2CCN1Cc1nc2ccc(C(=O)O)c(F)c2n1C[C@@H]1CCO1 [Compound I-198]
128,0.86,C[C@H]1c2cc(OCc3ccc(OC(F)F)cc3F)c(C(F)(F)F)cc2CCN1Cc1nc2ccc(C(=O)O)c(F)c2n1C[C@@H]1CCO1 [Compound I-199]
102,0.577,C[C@H]1c2cc(OCc3cc(F)c(Cl)cc3F)c(C(F)(F)F)cc2CCN1Cc1nc2ccc(C(=O)O)c(F)c2n1C[C@@H]1CCO1 [Compound I-200]
123,0.274,C[C@H]1c2cc(OCc3ccc(Cl)cc3Cl)c(C(F)(F)F)cc2CCN1Cc1nc2ccc(C(=O)O)c(F)c2n1C[C@@H]1CCO1 [Compound I-201]
105,1.66,COc1ccc(COc2cc3c(cc2C(F)(F)F)CCN(Cc2nc4c(F)cc(C(=O)O)cc4n2C[C@@H]2CCO2)[C@H]3C)cc1 [Compound I-202]
104,0.31,C[C@H]1c2cc(OCc3ccc(Cl)cn3)c(C(F)(F)F)cc2CCN1Cc1nc2c(F)cc(C(=O)O)cc2n1C[C@@H]1CCO1 [Compound I-203]
117,0.509,Cc1csc(COc2cc3c(cc2C(F)(F)F)CCN(Cc2nc4c(F)cc(C(=O)O)cc4n2C[C@@H]2CCO2)[C@H]3C)n1 [Compound I-204]
109,0.447,C[C@H]1c2cc(OCc3ccc(Cl)cc3)c(C(F)(F)F)cc2CCN1Cc1nc2c(F)cc(C(=O)O)cc2n1C[C@@H]1CCO1 [Compound I-205]
110,0.511,Cc1ccc(COc2cc3c(cc2C(F)(F)F)CCN(Cc2nc4c(F)cc(C(=O)O)cc4n2C[C@@H]2CCO2)[C@H]3C)cc1 [Compound I-206]
90.3,1.72,C[C@H]1c2cc(OCc3ccc(C4CC4)cc3)c(C(F)(F)F)cc2CCN1Cc1nc2c(F)cc(C(=O)O)cc2n1C[C@@H]1CCO1 [Compound I-207]
109,0.0824,COc1cc(Cl)ccc1COc1cc2c(cc1C(F)(F)F)CCN(Cc1nc3c(F)cc(C(=O)O)cc3n1C[C@@H]1CCO1)[C@H]2C [Compound I-208]
112,0.984,C[C@H]1c2cc(OCc3ccccc3Cl)c(C(F)(F)F)cc2CCN1Cc1nc2c(F)cc(C(=O)O)cc2n1C[C@@H]1CCO1 [Compound I-209]
113,0.434,C[C@H]1c2cc(OCc3ccc(F)cc3F)c(C(F)(F)F)cc2CCN1Cc1nc2c(F)cc(C(=O)O)cc2n1C[C@@H]1CCO1 [Compound I-210]
103,0.181,C[C@H]1c2cc(OCc3ccc(Cl)cc3Cl)c(C(F)(F)F)cc2CCN1Cc1nc2c(F)cc(C(=O)O)cc2n1C[C@@H]1CCO1 [Compound I-211]
104,1,C[C@H]1c2cc(OCc3ccc(OC(F)F)cc3F)c(C(F)(F)F)cc2CCN1Cc1nc2c(F)cc(C(=O)O)cc2n1C[C@@H]1CCO1 [Compound I-212]
122,0.366,C[C@H]1c2cc(OCc3cc(F)c(Cl)cc3F)c(C(F)(F)F)cc2CCN1Cc1nc2c(F)cc(C(=O)O)cc2n1C[C@@H]1CCO1 [Compound I-213]
104,0.392,C[C@H]1c2cc(OCc3ccc(C#N)cc3F)c(C(F)(F)F)cc2CCN1Cc1nc2c(F)cc(C(=O)O)cc2n1C[C@@H]1CCO1 [Compound I-214]
106,1.82,C[C@H]1c2cc(OCc3ccc(C(F)F)cc3F)c(C(F)(F)F)cc2CCN1Cc1nc2ccc(C(=O)O)cc2n1C[C@@H]1CCO1 [Compound I-215]
